Laboratory results as given in patent US20240366648A1, “NAD-AUGMENTATION THERAPY FOR PARKINSON'S DISEASE” (Vestlandets Innovasjonsselskap AS (VIS), priority 2021, published 2024).

Assays:
[1] = test system: gene expression in muscle; test: RNA-seq differential gene expression in muscle tissue; type: in vivo, human; conditions: NR vs placebo
Procedure: For all subjects at both visits, total RNA was extracted from muscle biopsy tissue and PBMC homogenate using RNeasy plus mini kit (Qiagen) with on-column DNase treatment according to manufacturer's protocol. The final elution was made in 45 ul of dH2O. The concentration and integrity of the total RNA were estimated by Ribogreen assay (Thermo Fisher Scientific), and Fragment Analyzer (Advanced Analytical), respectively, and 10 ng of total RNA was used for downstream RNA-seq applications using the SMARTer Stranded Total RNA-Seq Kit v2-Pico Input Mammalian Kit (IlluminaTakara Bio USA, Inc., Mountian View, CA) as per manufacturer's recommended protocol. Library quantity was assessed by Picogreen Assay (Thermo Fisher Scientific), and the library quality was estimated by utilizing a DNA High Sense chip on a Caliper Gx (Perkin Elmer). Accurate quantification of the final libraries for sequencing applications was determined using the qPCR-based KAPA Biosystems Library Quantification kit (Kapa Biosystems, Inc.). Each library pooled equimolar prior to clustering. One hundred bp paired-end sequencing was performed on an Illumina NovaSeq S4 sequencer (Illumina, Inc.). Two subjects were discarded from the PBMC samples and two from the muscle samples due to either insufficient tissue quantity, participant drop out/lack of sample, or being outliers in expression. […] FASTQ files were assessed using […] version 0.11.9. Quantification at the transcript level was calculated using Salmon version 1.3.0 with fragment-level GC bias correction against the GENCODE version 35, with the whole genome as decoy sequence. Transcript-level quantification was collapsed onto gene-level using the tximport R package version 1.8.0. Genes in non-canonical chromosomes and scaffolds and transcripts encoded by the mitochondrial genome were filtered out, together with non-protein-coding genes. Low-expressed genes were likewise removed from downstream analyses (expression below 10 reads for 75% of the samples). PBMC and muscle datasets were analysed independently. For PBMC samples, cell type composition was assessed employing ABIS. Differential gene expression was performed using the DESeq2 R package version 1.22.2. The generalized linear model formula accounted for both interindividual variability between subjects and the normal course of the experiment (baseline for each subject and baseline for the time-course). Multiple hypothesis testing was performed with the default automatic filtering of DESeq2 followed by false discovery rate (FDR) calculation by the Benjamini-Hochberg procedure.

[2] = test system: yeast; conditions: Belenky et al. 2007; cited from earlier work
[3] = test system: patients with PD; test: Safety, adverse events and compliance, phase I trial; type: in vivo
Procedure: Thirty PD patients were randomly assigned (Block size 6, allocation 1:1) to 500 mg NR, provided in the form of nicotinamide riboside chloride (Niagen® from Chromadex), or placebo twice per day, 12 hours apart, using the electronic Case Report Form (Viedoc.com). The drug containers were sequentially marked by an independent third party. The NR (Niagen®) and placebo were provided by ChromaDex, USA. Each NR capsule contained 250 mg of NR. Placebo capsules contained microcrystalline cellulose. The vials and capsules containing NR and placebo were identical in shape, colour, and smell. Study drug compliance was calculated from counting returned number of study capsules and self-reporting. Participants, examining physicians, medical- and research personnel were blinded for the duration of the trial. Sample size was determined by comparing previous literature with respect to the primary objective.
At screening for trial entry, candidates underwent physical and neurological examination, brain MRI, and DaTscan. Eligible patients who entered the trial were assessed at baseline (visit 1, V1) and after four weeks of exposure to either NR or placebo (visit 2, V2). At both visits, patients underwent physical and neurological examination, including assessment by the Movement Disorder Society Unified Parkinson's Disease Rating Scale section I-IV (MDS-UPDRS), and biological sampling. MR-PET was performed within one week prior to visit 1, and at visit 2. All participants remained naïve for antiparkinson drugs for the duration of the trial. All clinical assessments were performed by a blinded movement disorders expert. Each patient was examined by the same neurologist at both visits. Methodological details on each procedure are provided below. Safety was monitored through routine clinical blood tests and registration of adverse events. Adverse events (AE) were recorded and scored by the investigative physician. Severity was scored according to severity grading defined by Common Terminology Criteria for Adverse Events v5.0 (CTCAE) as (1) mild, (2) moderate, (3) severe, (4) life-threatening or (5) death. The AE relation to the study drug was scored as (1) unrelated, (2) unlikely, (3) possible, (4) probable or (5) definitely.

In the case of `NC(=O)c1ccc[n+]([C@@H]2O[C@H](CO)[C@@H](O)[C@H]2O)c1` [NR, nicotinamide riboside], the “KLF2 expression in muscle” value [1] was “substantial upregulation”, the “expression of PARP15, AMT, FARS2, TMEM242 in muscle” value [1] was “upregulation” and the “gene set enrichment in muscle: proteasomal function, RNA transport and stability” value [1] was “upregulation”. For the same molecule, the “number of differentially expressed genes in muscle tissue” value ([1]; between visit differences, FDR<0.05) was 58 genes, the lifespan in yeast [2] was “extends lifespan” and the “CTCAE Grading: Upper Respiratory infection” value ([3]; 1 event, NR group) was “Grade 1 (1)”. The “Adverse events (n): Anorexia” value ([3]; human, in vivo, 4 weeks) was 1, the “Adverse events (n): Cholelithiasis” value ([3]; human, in vivo, 4 weeks) was 1 and the “Adverse events (n): Fatigue” value ([3]; human, in vivo, 4 weeks) was 1. The “Adverse events (n): Headache” value ([3]; human, in vivo, 4 weeks) was 3, the “Adverse events (n): Hematoma (leg)” value ([3]; human, in vivo, 4 weeks) was 2 and the “Adverse events (n): Inguinal hernia” value ([3]; human, in vivo, 4 weeks) was 1. The “Adverse events (n): Leg Pain” value ([3]; human, in vivo, 4 weeks) was 1, the “Adverse events (n): Nausea” value ([3]; human, in vivo, 4 weeks) was 1 and the “Adverse events (n): Upper Respiratory infection” value ([3]; human, in vivo, 4 weeks) was 1. For the same molecule, the “CTCAE Grading: Anorexia” value ([3]; human, in vivo, 4 weeks) was “Grade 1 (1)”, the “CTCAE Grading: Cholelithiasis” value ([3]; human, in vivo, 4 weeks) was “Grade 1 (1)” and the “CTCAE Grading: Fatigue” value ([3]; human, in vivo, 4 weeks) was “Grade 1 (1)”. For the same molecule, the “CTCAE Grading: Headache” value ([3]; human, in vivo, 4 weeks) was “Grade 1 (4)”, the “CTCAE Grading: Inguinal hernia” value ([3]; human, in vivo, 4 weeks) was “Grade 1 (1)” and the “CTCAE Grading: Leg Pain” value ([3]; human, in vivo, 4 weeks) was “Grade 1 (1)”. The “CTCAE Grading: Nausea” value ([3]; human, in vivo, 4 weeks) was “Grade 1 (1)”, the “Causal Relationship to Study Drug: Anorexia” value ([3]; human, in vivo, 4 weeks) was “Unlikely (1)” and the “Causal Relationship to Study Drug: Cholelithiasis” value ([3]; human, in vivo, 4 weeks) was “Unrelated (1)”. The “Causal Relationship to Study Drug: Fatigue” value ([3]; human, in vivo, 4 weeks) was “Unlikely (1)”, the “Causal Relationship to Study Drug: Hematoma (leg)” value ([3]; human, in vivo, 4 weeks) was “Unrelated (2)” and the “Causal Relationship to Study Drug: Inguinal hernia” value ([3]; human, in vivo, 4 weeks) was “Unrelated (1)”. For the same molecule, the “Causal Relationship to Study Drug: Leg Pain” value ([3]; human, in vivo, 4 weeks) was “Unrelated (1)”, the “Causal Relationship to Study Drug: Nausea” value ([3]; human, in vivo, 4 weeks) was “Unlikely (1)” and the “Causal Relationship to Study Drug: Upper Respiratory infection” value ([3]; human, in vivo, 4 weeks) was “Unlikely (1)”. For the same molecule, the “severity and relatedness of reported adverse events” value ([3]; in vivo) was “minor and considered to be unrelated to NR” and the “subjects reporting adverse events” value ([3]; in vivo) was “Seven”.
